Laboratory results published in publication PMC4595804, “A strategy to discover decoy chemokine ligands with an anti-inflammatory activity” (Scientific Reports, 2015).

Tests used:
mouse CCL22 = molecular target: T1, mouse CCL22 (Mus musculus, UniProt O88430); assay: Calcium responses induced by mouse CCL22, neutraligand protocol, CCR4+Gqi5+ HEK cells; type: cell-based; settings: 5 nM mouse CCL22 preincubated 1 h with compound; read-out: IC50, inhibition of mouse CCL22-evoked calcium responses
T1 construct: purchased R&D systems
Description: Dye loaded cells were placed in the FlexStation 3 (Molecular Devices). Calcium mobilization was measured at 401 and 475 nm emission fluorescence after excitation at 355 nm. For the primary screening, the ligands (50μl of chemokine mixed with DMSO or test compounds) were added to the cells at 40 s, followed by digitonin addition (50μl) at 100 s to the cells. Molecules were screened at a final concentration of 2μg/ml with 5 nM CCL17 or CCL22. […] Raw fluorescence data (at 401 and 475 nm) were exported and the ratio 401/475 was calculated. The calcium response values (height of peak response over baseline) were determined. Hits were selected by comparing the response amplitude at the time of the chemokine addition ± test compound. The Z’ factor[29] was calculated according to the following equation: Z’ = 1-(3SD+ + 3SD−)/|Ave+ − Ave−|, where SD+ and Ave+ are respectively the standard deviation and the mean value of the positive controls (chemokine + DMSO), while SD− and Ave− are respectively the standard deviation and the mean value of the negative controls (HEPES-BSA (0.1%) mixed with DMSO, or cells mixed with C-021). Hit molecules were confirmed by performing concentration-response curves and their half maximal inhibitory concentration (IC50) values were calculated using the Kaleidagraph software. […]
neutraligand. Human (○) or mouse (●) CCL17 (5nM) was preincubated with increasing […]

CCL22 = molecular target: T2, CCL22 (Homo sapiens, UniProt O00626); assay: Scratch wound assay, CCL22-mediated HaCat cell migration; type: cell-based; settings: HaCat cells, 72 h, read-out: inhibition of CCL22-mediated wound closure
T2 construct: codes for the mature CCL17 or CCL22 with an N-terminal thioredoxin-hexahistidin (TRX- (His)6) tag; thioredoxin (TRX) (N, cleaved yes); (His)6 (N, cleaved yes); made in house; host or cells: E. coli BL21 (DE3)
T2 sequence (O00626 25-93): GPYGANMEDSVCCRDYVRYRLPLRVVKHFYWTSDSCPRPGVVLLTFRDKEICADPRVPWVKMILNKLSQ
Description: soluble formazan dye which can be detected by absorbance at 420-480nm. HUT78 T cells (or HaCat cells) were seeded on 24-well plates (200,000 cells per well) and were incubated […]
concentration ≤1% on cells). The background control was reserved as one well containing the culture medium only. The plates were incubated for 72h at 37°C. Three days later, the medium containing the neutraligands was removed, and WST-1 reagent (1:10 final dilution) (Ozyme) was added to each well for a 2h incubation at 37°C as the manufacturer’s recommendation. The plates were shaken and absorbance was measured at 450nm (reference wavelength 690nm) against the background control, using a multiwell plate reader (EnVision, Perkin Elmer). Assays were performed as three independent replicates.
In vitro cell migration assay (scratch wound test) […]
the wound closure was determined as the difference between wound width at times 0 and 72h. […]
doses). After 24h, cytotoxicity was evaluated in the wells using the Alamar Blue method. […]
before AA treatment. The activity of COX2 was determined by measuring PGE2 (Cayman) in the supernatants by EIA. […]

T1 sequence (O88430 25-92): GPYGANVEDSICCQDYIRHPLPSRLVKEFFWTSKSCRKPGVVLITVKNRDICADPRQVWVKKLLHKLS

O=C(OCC(O)CO)c1ccccc1O (centres unmarked) [GPN136, 2,3-dihydroxypropyl 2-hydroxybenzoate]
IC50 (mouse CCL22): 8.1 ± 1.5 µM
inhibition at 10 µM (CCL22): 85.2%
